Data as given in patent US8163906B2, “Dihydroquinone and dihydronaphthridine inhibitors of JNK” (Roche Palo Alto, LLC, priority 2007, dated 2012).

Key:
[1] = tested on: TNFα-induced IL-6 production; assay: Rat in vivo TNFα-induced IL-6 production assay, oral gavage; design: species or system Female Wistar-Han rats; conditions: 3 mg/Kg, 30 min prior to TNF-α i.p. challenge, plasma 90 min after challenge
Experimental: Female Wistar-Han rats procured from Charles River Laboratories were allowed to acclimate for one week prior to use and achieve an approximate body weight of 101-130 g. Rats were administered test compound (N=8 per compound) via oral gavage 30 min prior to an intraperitoneal challenge of 0.5 μg recombinant rat TNF-α (Biosource). Blood was collected via cardiocentesis 90 min after TNF-α challenge. Plasma was prepared using lithium heparin separation tubes (BD microtainer) and frozen at −80° C. until analyzed. IL-6 levels were determined using a rat specific IL-6 ELISA kit (Biosource). The percent inhibition and ED50 values (calculated as the dose of compound at which […] is 50% of the control value) were determined.

[2] = tested on: TNFα-induced IL-6 production; assay: Rat in vivo TNFα-induced IL-6 production assay, subcutaneous; design: species or system Female Wistar-Han rats; conditions: plasma 90 min after TNF-α challenge
Experimental: Female Wistar-Han rats procured from Charles River Laboratories were allowed to acclimate for one week prior to use and achieve an approximate body weight of 114-132 g. Rats were administered compound 18 (N=8 per dose) subcutaneously 30 min prior to an intra-peritoneal challenge of 0.5 μg recombinant rat TNF-α (Biosource). Blood was collected via cardiocentesis 90 min after TNF-α challenge. Plasma was prepared using lithium heparin separation tubes (BD microtainer) and frozen at −80° C. until analyzed. IL-6 levels were determined using a rat specific IL-6 ELISA kit (Biosource). The percent inhibition and ED50 values (calculated as the dose of compound at which […] is 50% of the control value) were determined.

With COC(=O)c1c(Cc2ccc(C(=O)NCCO)cc2)c(=O)c2ccc(Cl)cc2n1-c1ccccc1 [Compound 18, 7-chloro-3-[4-(2-hydroxyethylcarbamoyl)-benzyl]-4-oxo-1-phenyl-1,4-dihydroquinoline-2-carboxylic acid methyl ester] the “IL-6 Inhibition (%)” value [1] was 53%, the “IL-6 Inhibition (%)” value ([2]; 0.3 mg/Kg) was 30.01% and the “IL-6 Inhibition (%)” value ([2]; 1.0 mg/Kg) was 47.83%. The “IL-6 Inhibition (%)” value ([2]; 3.0 mg/Kg) was 54.85% and the “IL-6 Inhibition (%)” value ([2]; 10 mg/Kg) was 71.15%.
